Source: PubChem BioAssay AID743088 (The Scripps Research Institute Molecular Screening Center, 2013)
Calls of active or inactive are those of the source.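 The calls were made as follows: active = binding inhibited by at least 50%, or stimulated by at least 50%, shown as inhibition of -50% or lower; inactive = the rest.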

How the values were obtained:
Assay in all cases: radioligand displacement at 30 receptors – biochemical, Panlabs HitProfilingScreen, selectivity assay for AVPR1a antagonist project, profiling panel (AID 743088)
[1] = biological target: 5-hydroxytryptamine receptor 2B (Homo sapiens) (UniProt P41595); conditions: 30 targets, Serotonin (5-Hydroxytryptamine) 5-HT2B, at 10 µM, active compounds read high
5-hydroxytryptamine receptor 2B (Homo sapiens), sequence (P41595 whole entry, looked up): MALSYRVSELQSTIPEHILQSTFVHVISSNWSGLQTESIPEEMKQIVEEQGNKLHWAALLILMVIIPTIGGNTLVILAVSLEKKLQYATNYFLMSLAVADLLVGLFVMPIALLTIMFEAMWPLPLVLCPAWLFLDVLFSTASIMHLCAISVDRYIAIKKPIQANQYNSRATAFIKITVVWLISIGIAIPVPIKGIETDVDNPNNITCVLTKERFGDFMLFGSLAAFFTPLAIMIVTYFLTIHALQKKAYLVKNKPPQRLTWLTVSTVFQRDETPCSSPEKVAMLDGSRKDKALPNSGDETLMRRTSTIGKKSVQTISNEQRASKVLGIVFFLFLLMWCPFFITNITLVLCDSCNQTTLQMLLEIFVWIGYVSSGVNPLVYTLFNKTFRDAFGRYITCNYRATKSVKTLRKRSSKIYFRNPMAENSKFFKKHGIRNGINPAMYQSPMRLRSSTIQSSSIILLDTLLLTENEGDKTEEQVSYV

Adenosine A1 = conditions: 30 targets, at 10 µM, active compounds read high
Adenosine A2A = conditions: 30 targets, at 10 µM, active compounds read high
Adrenergic alpha1A = conditions: 30 targets, at 10 µM, active compounds read high
Adrenergic alpha1B = conditions: 30 targets, at 10 µM, active compounds read high
Adrenergic beta1 = conditions: 30 targets, at 10 µM, active compounds read high
[2] = biological target: Alpha-2A adrenergic receptor (Homo sapiens) (UniProt P08913); conditions: 30 targets, Adrenergic alpha2A, at 10 µM, active compounds read high
Alpha-2A adrenergic receptor (Homo sapiens), sequence (P08913 whole entry, looked up): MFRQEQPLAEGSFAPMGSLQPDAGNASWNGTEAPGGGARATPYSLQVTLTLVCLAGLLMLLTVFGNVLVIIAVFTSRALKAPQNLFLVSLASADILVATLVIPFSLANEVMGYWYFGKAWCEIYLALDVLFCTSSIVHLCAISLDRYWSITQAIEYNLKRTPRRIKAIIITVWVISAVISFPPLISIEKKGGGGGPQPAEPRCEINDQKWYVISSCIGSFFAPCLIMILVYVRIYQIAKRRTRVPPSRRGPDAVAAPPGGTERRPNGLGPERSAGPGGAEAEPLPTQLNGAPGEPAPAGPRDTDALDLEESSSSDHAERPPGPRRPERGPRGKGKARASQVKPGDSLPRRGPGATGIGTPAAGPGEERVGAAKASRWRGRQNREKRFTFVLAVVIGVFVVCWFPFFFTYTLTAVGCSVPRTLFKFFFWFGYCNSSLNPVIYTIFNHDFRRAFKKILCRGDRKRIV

[3] = system: Alpha-2A adrenergic receptor (Homo sapiens) + Histamine H1 receptor (Homo sapiens) + Mu-type opioid receptor (Homo sapiens); conditions: 30 targets, at 10 µM, active compounds read high
[4] = biological target: Beta-2 adrenergic receptor (Homo sapiens) (UniProt P07550); conditions: 30 targets, Adrenergic beta2, at 10 µM, active compounds read high
Beta-2 adrenergic receptor (Homo sapiens), sequence (P07550 whole entry, looked up): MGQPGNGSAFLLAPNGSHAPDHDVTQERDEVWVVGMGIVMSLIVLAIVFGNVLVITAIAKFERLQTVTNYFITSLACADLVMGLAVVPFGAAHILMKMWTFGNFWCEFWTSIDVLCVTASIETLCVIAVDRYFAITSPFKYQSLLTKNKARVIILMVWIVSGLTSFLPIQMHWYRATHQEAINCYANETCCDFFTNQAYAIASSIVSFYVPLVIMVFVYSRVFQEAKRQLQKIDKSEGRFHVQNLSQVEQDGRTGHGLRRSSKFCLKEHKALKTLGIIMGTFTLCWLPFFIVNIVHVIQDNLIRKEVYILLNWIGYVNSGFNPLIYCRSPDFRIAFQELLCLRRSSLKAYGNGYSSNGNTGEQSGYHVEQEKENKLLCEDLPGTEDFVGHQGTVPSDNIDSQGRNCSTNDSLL

Calcium Channel L-Type = conditions: 30 targets, Dihydropyridine site, at 10 µM, active compounds read high
Cannabinoid CB1 = conditions: 30 targets, at 10 µM, active compounds read high
[5] = biological target: D(1A) dopamine receptor (Homo sapiens) (UniProt P21728); conditions: 30 targets, Dopamine D1, at 10 µM, active compounds read high
D(1A) dopamine receptor (Homo sapiens), sequence (P21728 whole entry, looked up): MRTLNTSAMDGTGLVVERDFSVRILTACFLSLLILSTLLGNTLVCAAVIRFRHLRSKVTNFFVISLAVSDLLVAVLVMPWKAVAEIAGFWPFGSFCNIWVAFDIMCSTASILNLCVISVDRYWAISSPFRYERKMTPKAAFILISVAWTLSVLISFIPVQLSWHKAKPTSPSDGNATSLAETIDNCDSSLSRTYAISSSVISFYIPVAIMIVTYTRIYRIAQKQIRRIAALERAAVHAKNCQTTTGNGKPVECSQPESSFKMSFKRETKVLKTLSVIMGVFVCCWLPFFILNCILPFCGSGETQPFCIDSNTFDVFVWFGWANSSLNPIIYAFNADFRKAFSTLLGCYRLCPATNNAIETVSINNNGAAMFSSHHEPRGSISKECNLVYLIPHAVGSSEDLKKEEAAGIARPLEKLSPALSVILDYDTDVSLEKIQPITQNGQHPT

Dopamine D2 = conditions: 30 targets, at 10 µM, active compounds read high
GABAA Central = conditions: 30 targets, at 10 µM, active compounds read high
Glutamate NMDA = conditions: 30 targets, Phencyclidine site, at 10 µM, active compounds read high
Histamine H1 = conditions: 30 targets, at 10 µM, active compounds read high
[6] = biological target: Muscarinic acetylcholine receptor M2 (Homo sapiens) (UniProt P08172); conditions: 30 targets, at 10 µM, active compounds read high
Muscarinic acetylcholine receptor M2 (Homo sapiens), sequence (P08172 whole entry, looked up): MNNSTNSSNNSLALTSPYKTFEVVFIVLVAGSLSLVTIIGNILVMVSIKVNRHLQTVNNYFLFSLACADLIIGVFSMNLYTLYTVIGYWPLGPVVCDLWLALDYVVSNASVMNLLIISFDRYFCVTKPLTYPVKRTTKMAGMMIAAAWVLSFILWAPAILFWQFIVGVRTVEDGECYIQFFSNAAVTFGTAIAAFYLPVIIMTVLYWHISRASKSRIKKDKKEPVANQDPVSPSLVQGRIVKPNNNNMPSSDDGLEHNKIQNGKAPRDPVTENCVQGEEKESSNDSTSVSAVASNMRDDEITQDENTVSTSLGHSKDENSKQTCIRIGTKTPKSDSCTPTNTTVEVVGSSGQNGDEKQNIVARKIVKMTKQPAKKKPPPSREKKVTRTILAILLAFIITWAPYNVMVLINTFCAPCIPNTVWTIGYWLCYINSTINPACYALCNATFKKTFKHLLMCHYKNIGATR

[7] = biological target: Muscarinic acetylcholine receptor M3 (Homo sapiens) (UniProt P20309); conditions: 30 targets, at 10 µM, active compounds read high
Muscarinic acetylcholine receptor M3 (Homo sapiens), sequence (P20309 whole entry, looked up): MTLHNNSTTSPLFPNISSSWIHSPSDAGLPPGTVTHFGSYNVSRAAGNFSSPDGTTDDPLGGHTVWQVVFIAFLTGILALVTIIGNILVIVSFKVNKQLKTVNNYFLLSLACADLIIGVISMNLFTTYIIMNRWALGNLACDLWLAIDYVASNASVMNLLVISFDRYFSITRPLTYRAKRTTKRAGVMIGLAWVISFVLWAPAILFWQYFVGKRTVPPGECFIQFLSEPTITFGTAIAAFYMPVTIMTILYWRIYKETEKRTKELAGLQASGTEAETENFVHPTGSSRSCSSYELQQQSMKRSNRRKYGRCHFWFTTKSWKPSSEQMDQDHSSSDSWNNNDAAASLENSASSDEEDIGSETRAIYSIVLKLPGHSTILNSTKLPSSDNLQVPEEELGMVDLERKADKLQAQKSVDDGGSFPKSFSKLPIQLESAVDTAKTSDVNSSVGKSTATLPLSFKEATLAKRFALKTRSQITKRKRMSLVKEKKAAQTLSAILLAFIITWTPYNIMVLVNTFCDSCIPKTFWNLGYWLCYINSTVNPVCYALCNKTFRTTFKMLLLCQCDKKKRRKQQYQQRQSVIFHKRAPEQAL

Nicotinic Acetylcholine = conditions: 30 targets, at 10 µM, active compounds read high
Opiate mu (OP3, MOP) = conditions: 30 targets, at 10 µM, active compounds read high
Prostanoid EP4 = conditions: 30 targets, at 10 µM, active compounds read high
Sigma 1 = conditions: 30 targets, at 10 µM, active compounds read high
Sodium Channel Site 2 = conditions: 30 targets, at 10 µM, active compounds read high
[8] = system: Transporter Norepinephrine (NET); conditions: 30 targets, at 10 µM, active compounds read high
[9] = biological target: Voltage-gated inwardly rectifying potassium channel KCNH2 (Homo sapiens) (UniProt Q12809); conditions: 30 targets, Potassium Channel hERG, at 10 µM, active compounds read high
Voltage-gated inwardly rectifying potassium channel KCNH2 (Homo sapiens), sequence (Q12809 whole entry, looked up): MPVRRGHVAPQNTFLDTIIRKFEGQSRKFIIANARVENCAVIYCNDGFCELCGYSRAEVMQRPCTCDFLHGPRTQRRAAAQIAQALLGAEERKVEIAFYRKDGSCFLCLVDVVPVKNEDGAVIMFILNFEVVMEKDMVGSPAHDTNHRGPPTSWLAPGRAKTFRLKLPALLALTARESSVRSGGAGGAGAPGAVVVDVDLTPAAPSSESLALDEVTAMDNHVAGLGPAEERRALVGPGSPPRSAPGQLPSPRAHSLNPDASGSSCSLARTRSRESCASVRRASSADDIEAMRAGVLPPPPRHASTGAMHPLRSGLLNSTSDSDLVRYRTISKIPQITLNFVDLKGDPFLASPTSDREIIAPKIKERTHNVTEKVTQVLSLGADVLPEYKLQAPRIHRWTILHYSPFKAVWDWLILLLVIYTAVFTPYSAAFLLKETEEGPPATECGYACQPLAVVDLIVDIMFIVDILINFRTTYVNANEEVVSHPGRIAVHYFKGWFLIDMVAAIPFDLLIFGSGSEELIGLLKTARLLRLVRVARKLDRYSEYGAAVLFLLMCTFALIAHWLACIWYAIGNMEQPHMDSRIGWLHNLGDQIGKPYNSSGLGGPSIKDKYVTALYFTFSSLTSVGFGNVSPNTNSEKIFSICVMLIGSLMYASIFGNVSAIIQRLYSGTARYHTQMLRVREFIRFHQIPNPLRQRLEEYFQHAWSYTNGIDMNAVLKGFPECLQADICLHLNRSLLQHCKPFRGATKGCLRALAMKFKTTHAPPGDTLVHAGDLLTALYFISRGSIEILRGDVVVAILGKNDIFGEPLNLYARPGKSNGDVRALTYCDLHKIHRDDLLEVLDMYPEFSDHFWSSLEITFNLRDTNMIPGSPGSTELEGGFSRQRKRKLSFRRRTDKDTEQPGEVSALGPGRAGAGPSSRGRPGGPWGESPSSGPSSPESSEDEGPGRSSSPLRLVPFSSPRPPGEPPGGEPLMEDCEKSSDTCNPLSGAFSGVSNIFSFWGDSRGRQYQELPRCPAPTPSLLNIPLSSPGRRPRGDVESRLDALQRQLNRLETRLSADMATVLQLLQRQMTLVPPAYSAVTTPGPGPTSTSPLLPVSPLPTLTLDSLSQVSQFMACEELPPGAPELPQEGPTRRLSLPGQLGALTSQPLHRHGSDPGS

O=C(C1CCN(c2ccc(Cl)cn2)CC1)N(CC1CC1)c1ccc(Cl)cc1
inhibition of binding [1]: 36% (inactive)
inhibition of binding (Adenosine A1): -4% (inactive)
inhibition of binding (Adenosine A2A): 7% (inactive)
inhibition of binding (Adrenergic alpha1A): 23% (inactive)
inhibition of binding (Adrenergic alpha1B): -15% (inactive)
inhibition of binding (Adrenergic beta1): 12% (inactive)
inhibition of binding [2]: 8% (inactive)
inhibition of binding [3]: 6% (inactive)
inhibition of binding [4]: 5% (inactive)
inhibition of binding (Calcium Channel L-Type): 44% (inactive)
inhibition of binding (Cannabinoid CB1): 48% (inactive)
inhibition of binding [5]: -6% (inactive)
inhibition of binding (Dopamine D2): 1% (inactive)
inhibition of binding (GABAA Central; Flunitrazepam site): -6% (inactive)
inhibition of binding (GABAA Central; Muscimol site): 7% (inactive)
inhibition of binding (Glutamate NMDA): 5% (inactive)
inhibition of binding (Histamine H1): 12% (inactive)
inhibition of binding [6]: -5% (inactive)
inhibition of binding [7]: -2% (inactive)
inhibition of binding (Nicotinic Acetylcholine): -15% (inactive)
inhibition of binding (Opiate mu (OP3, MOP)): 23% (inactive)
inhibition of binding (Prostanoid EP4): 31% (inactive)
inhibition of binding (Sigma 1): 61%
inhibition of binding (Sodium Channel Site 2): 35% (inactive)
inhibition of binding [8]: 47% (inactive)
inhibition of binding [9]: 22% (inactive)
